System: serum cytokine/chemokine/growth factor/ligands of ALS patient
Experiment: Serum Luminex, before and after NAC treatment
Assay type: in vivo, human
Protocol: (§1) Serum Luminex. Serum from patients were used to determine the levels of cytokine/chemokine/growth factor/ligands secretion using multiplex luminex assay. Scatter plot was prepared using the levels of cytokine/chemokine/growth factor/ligands in serum obtained at different dates from patients as compared to controls.
Serum Luminex. Serum from patients were used to determine the levels of cytokine/chemokine/growth factor/ligands secretion using multiplex luminex assay.
as §1

[1] = JC sera Apr. 30, 2020 (NAC infusion)
[2] = JC sera Jun. 22, 2020 (NAC infusion)
[3] = JC sera Jun. 24, 2020 (NAC infusion)
[4] = JC sera May 7, 2020 (NAC infusion)
[5] = JC sera May 14, 2020 (NAC infusion)
[6] = JC sera May 21, 2020 (NAC infusion)
[7] = JC sera May 28, 2020 (NAC infusion)
[8] = serum of ALS patient after NAC treatment

SMILES: CC(=O)N[C@@H](CS)C(=O)O [NAC, N-Acetyl-Cysteine]
- IL-5 (JC sera Apr. 30, 2020): 2 pg/mL
- IL-7 (JC sera Apr. 30, 2020): 6.25 pg/mL
- IL-8 (JC sera Apr. 30, 2020): 4.28 pg/mL
- IL-21 (JC sera Apr. 30, 2020): 0.86 pg/mL
- IL-23 (JC sera Apr. 30, 2020): 138.55 pg/mL
- MIP-1a (JC sera Apr. 30, 2020): 11.35 pg/mL
- MIP-1b (JC sera Apr. 30, 2020): 17.78 pg/mL
- TNFa (JC sera Apr. 30, 2020): 8.46 pg/mL
- Franktalkine [1]: 35.49 pg/mL
- GM-CSF [1]: 59.71 pg/mL
- IFNg [1]: 9.14 pg/mL
- IL-1b [1]: 1.03 pg/mL
- IL-10 [1]: 5.71 pg/mL
- IL-12p70 [1]: 2.32 pg/mL
- ITAC [1]: 14.07 pg/mL
- MIP-3a [1]: 8.17 pg/mL
- IL-2 (JC sera Jun. 22, 2020): 0.04 pg/mL
- IL-4 (JC sera Jun. 22, 2020): 15.17 pg/mL
- IL-5 (JC sera Jun. 22, 2020): 2.44 pg/mL
- IL-6 (JC sera Jun. 22, 2020): 3.33 pg/mL
- IL-7 (JC sera Jun. 22, 2020): 7.25 pg/mL
- IL-8 (JC sera Jun. 22, 2020): 5.21 pg/mL
- IL-21 (JC sera Jun. 22, 2020): 0.86 pg/mL
- IL-23 (JC sera Jun. 22, 2020): 158.41 pg/mL
- MIP-1a (JC sera Jun. 22, 2020): 12.15 pg/mL
- MIP-1b (JC sera Jun. 22, 2020): 24.21 pg/mL
- TNFa (JC sera Jun. 22, 2020): 9.2 pg/mL
- Franktalkine [2]: 35.49 pg/mL
- GM-CSF [2]: 50.3 pg/mL
- IFNg [2]: 10.42 pg/mL
- IL-1b [2]: 0.91 pg/mL
- IL-10 [2]: 8.54 pg/mL
- IL-12p70 [2]: 2.32 pg/mL
- IL-13 [2]: 5.03 pg/mL
- IL-17A [2]: 6.86 pg/mL
- ITAC [2]: 13.07 pg/mL
- MIP-3a [2]: 10.65 pg/mL
- IL-2 (JC sera Jun. 24, 2020): 0.17 pg/mL
- IL-4 (JC sera Jun. 24, 2020): 10.14 pg/mL
- IL-5 (JC sera Jun. 24, 2020): 2.1 pg/mL
- IL-7 (JC sera Jun. 24, 2020): 5.13 pg/mL
- IL-8 (JC sera Jun. 24, 2020): 4.47 pg/mL
- IL-21 (JC sera Jun. 24, 2020): 0.62 pg/mL
- IL-23 (JC sera Jun. 24, 2020): 106.21 pg/mL
- MIP-1a (JC sera Jun. 24, 2020): 12.15 pg/mL
- MIP-1b (JC sera Jun. 24, 2020): 27.78 pg/mL
- TNFa (JC sera Jun. 24, 2020): 8.82 pg/mL
- Franktalkine [3]: 35.11 pg/mL
- GM-CSF [3]: 111.4 pg/mL
- IFNg [3]: 4.58 pg/mL
- IL-1b [3]: 0.77 pg/mL
- IL-10 [3]: 23.69 pg/mL
- IL-12p70 [3]: 1.64 pg/mL
- IL-13 [3]: 3.95 pg/mL
- IL-17A [3]: 2.46 pg/mL
- ITAC [3]: 10.44 pg/mL
- MIP-3a [3]: 8.55 pg/mL
- IL-2 (JC sera May 7, 2020): 0.21 pg/mL
- IL-4 (JC sera May 7, 2020): 7.5 pg/mL
- IL-5 (JC sera May 7, 2020): 1.77 pg/mL
- IL-6 (JC sera May 7, 2020): 1.37 pg/mL
- IL-7 (JC sera May 7, 2020): 4.06 pg/mL
- IL-8 (JC sera May 7, 2020): 3.39 pg/mL
- IL-21 (JC sera May 7, 2020): 0.62 pg/mL
- IL-23 (JC sera May 7, 2020): 116.26 pg/mL
- MIP-1a (JC sera May 7, 2020): 10.39 pg/mL
- MIP-1b (JC sera May 7, 2020): 16.67 pg/mL
- TNFa (JC sera May 7, 2020): 7.45 pg/mL
- Franktalkine [4]: 33.33 pg/mL
- GM-CSF [4]: 58.44 pg/mL
- IFNg [4]: 4.81 pg/mL
- IL-1b [4]: 0.72 pg/mL
- IL-10 [4]: 6.63 pg/mL
- IL-12p70 [4]: 1.6 pg/mL
- IL-13 [4]: 3.99 pg/mL
- IL-17A [4]: 2.78 pg/mL
- ITAC [4]: 13.07 pg/mL
- MIP-3a [4]: 7.8 pg/mL
- IL-2 (JC sera May 12, 2020): 0 pg/mL
- IL-4 (JC sera May 12, 2020): 10.14 pg/mL
- IL-6 (JC sera May 12, 2020): 1.76 pg/mL
- IL-7 (JC sera May 12, 2020): 5.13 pg/mL
- IL-8 (JC sera May 12, 2020): 4.18 pg/mL
- IL-21 (JC sera May 12, 2020): 0.62 pg/mL
- IL-23 (JC sera May 12, 2020): 92.37 pg/mL
- MIP-1a (JC sera May 12, 2020): 11.8 pg/mL
- MIP-1b (JC sera May 12, 2020): 25.53 pg/mL
- TNFa (JC sera May 12, 2020): 7.14 pg/mL
- IL-2 (JC sera May 14, 2020): 8.16 pg/mL
- IL-4 (JC sera May 14, 2020): 13.73 pg/mL
- IL-5 (JC sera May 14, 2020): 1.72 pg/mL
- IL-6 (JC sera May 14, 2020): 1.07 pg/mL
- IL-7 (JC sera May 14, 2020): 6.39 pg/mL
- IL-8 (JC sera May 14, 2020): 5.32 pg/mL
- IL-21 (JC sera May 14, 2020): 0.56 pg/mL
- IL-23 (JC sera May 14, 2020): 106.21 pg/mL
- MIP-1a (JC sera May 14, 2020): 12.15 pg/mL
- MIP-1b (JC sera May 14, 2020): 19.37 pg/mL
- TNFa (JC sera May 14, 2020): 7.77 pg/mL
- Franktalkine [5]: 31.36 pg/mL
- GM-CSF [5]: 53.64 pg/mL
- IFNg [5]: 4.14 pg/mL
- IL-1b [5]: 0.8 pg/mL
- IL-10 [5]: 4.47 pg/mL
- IL-12p70 [5]: 1.81 pg/mL
- IL-13 [5]: 4.08 pg/mL
- IL-17A [5]: 2.24 pg/mL
- ITAC [5]: 12.13 pg/mL
- MIP-3a [5]: 6.78 pg/mL
- Franktalkine [6]: 32.65 pg/mL
- GM-CSF [6]: 48.19 pg/mL
- IFNg [6]: 5.58 pg/mL
- IL-1b [6]: 0.8 pg/mL
- IL-10 [6]: 3.7 pg/mL
- IL-12p70 [6]: 1.72 pg/mL
- IL-13 [6]: 3.99 pg/mL
- ITAC [6]: 15.13 pg/mL
- MIP-3a [6]: 6.78 pg/mL
- IL-2 (JC sera May 28, 2020): 0.01 pg/mL
- IL-4 (JC sera May 28, 2020): 11.8 pg/mL
- IL-5 (JC sera May 28, 2020): 2.21 pg/mL
- IL-6 (JC sera May 28, 2020): 2.03 pg/mL
- IL-7 (JC sera May 28, 2020): 5.99 pg/mL
- IL-8 (JC sera May 28, 2020): 4.47 pg/mL
- IL-21 (JC sera May 28, 2020): 0.75 pg/mL
- IL-23 (JC sera May 28, 2020): 144.83 pg/mL
- MIP-1a (JC sera May 28, 2020): 11.46 pg/mL
- MIP-1b (JC sera May 28, 2020): 25.53 pg/mL
- TNFa (JC sera May 28, 2020): 8.64 pg/mL
- Franktalkine [7]: 37.04 pg/mL
- GM-CSF [7]: 75.6 pg/mL
- IFNg [7]: 8.94 pg/mL
- IL-1b [7]: 0.87 pg/mL
- IL-10 [7]: 6.63 pg/mL
- IL-12p70 [7]: 2.16 pg/mL
- IL-13 [7]: 4.44 pg/mL
- IL-17A [7]: 5.49 pg/mL
- ITAC [7]: 14.77 pg/mL
- MIP-3a [7]: 8.17 pg/mL
- serum cytokines of ALS patient compared to healthy twin after NAC treatment (serum Luminex, Table 137): only IFN-g and TNF-α remained higher in ALS patient when compared to healthy twin
- change of serum cytokines after NAC treatment (serum from ALS patient, Table 138): Decrease in respective cytokines
- Fractalkine [8]: 39.89
- GCSF [8]: 82.17
- IFNa2 [8]: 22.87
- IFNg [8]: 21.25
- IL-6 [8]: 14.86
- IL-12p40 [8]: 15.96
- IL-12p70 [8]: 9.801
- IL-17a [8]: 14.45
- Rantes [8]: 9578
- TNFa (serum of ALS patient after NAC treatment, in pg/mL): 29.18
